Assay results as given in patent US9580416B2, “Inhibitors of Bruton's tyrosine kinase” (PHARMACYCLICS LLC, priority 2014, dated 2017).

Each compound was assayed against Btk (Homo sapiens, UniProt Q06187) (assay: Btk kinase activity, TR-FRET assay). Conditions: read-out: Btk (IC50).
Btk, sequence (Q06187 whole entry): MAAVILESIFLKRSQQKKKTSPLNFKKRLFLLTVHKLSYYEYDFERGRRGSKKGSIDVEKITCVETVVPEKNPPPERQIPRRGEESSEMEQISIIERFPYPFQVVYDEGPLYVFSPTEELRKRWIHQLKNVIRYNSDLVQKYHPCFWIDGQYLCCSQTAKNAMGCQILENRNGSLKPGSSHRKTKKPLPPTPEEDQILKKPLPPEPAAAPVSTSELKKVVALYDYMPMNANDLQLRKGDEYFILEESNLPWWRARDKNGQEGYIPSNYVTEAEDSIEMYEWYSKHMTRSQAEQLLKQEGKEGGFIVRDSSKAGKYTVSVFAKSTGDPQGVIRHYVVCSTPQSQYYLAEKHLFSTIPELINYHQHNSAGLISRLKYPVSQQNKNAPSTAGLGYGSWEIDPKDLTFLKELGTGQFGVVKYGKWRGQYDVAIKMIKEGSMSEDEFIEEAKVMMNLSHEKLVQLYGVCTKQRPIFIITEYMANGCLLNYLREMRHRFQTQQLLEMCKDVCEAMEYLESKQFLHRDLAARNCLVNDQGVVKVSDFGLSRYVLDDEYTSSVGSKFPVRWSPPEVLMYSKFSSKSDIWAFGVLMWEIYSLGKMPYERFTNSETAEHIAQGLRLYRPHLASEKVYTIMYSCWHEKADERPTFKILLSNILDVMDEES
Format: biochemical
Experimental: Btk kinase activity is determined using a time-resolved fluorescence resonance energy transfer (TR-FRET) methodology. Measurements are performed in a reaction volume of 50 μL using 96-well assay plates. Kinase enzyme, inhibitor, ATP (at the Km for the kinase), and 1 […] (Biotin-AVLESEEELYSSARQ-NH2) are incubated in a reaction buffer composed of 20 mM Tris, 50 mM NaCl, MgCl2 (5-25 mM depending on the kinase), MnCl2 (0-10 mM), 1 mM DTT, 0.1 mM EDTA, 0.01% bovine serum albumin, 0.005% Tween-20, and 10% DMSO at pH 7.4 for one hour. The reaction is quenched by the addition of 1.2 equivalents of EDTA (relative to divalent cation) in 25 μL of 1× Lance buffer (Perkin-Elmer). Streptavidin-APC (Perkin-Elmer) and Eu-labeled p-Tyr100 antibody (Perkin-Elmer) in 1× Lance buffer are added in a 25 μL volume to give final concentrations of 100 nM and 2.5 nM, respectively, and the mixture is allowed to incubate for one hour. The TR-FRET signal is measured on a multimode plate reader with an excitation wavelength (λEx) of 330 nm and detection wavelengths (λEm) of 615 and 665 nm. Activity is determined by the ratio of the fluorescence at 665 nm to that at 615 nm. For each compound, enzyme activity is measured at various concentrations of compound. Negative control reactions are performed in the absence of inhibitor in replicates of six, and two no-enzyme controls are used to determine baseline fluorescence levels. Inhibition constants, Ki(app), ware obtained using the program BatchKi (Kuzmic et al. (2000), Anal. Biochem. 286:45-50). IC50s are obtained according to the equation: IC50={Ki(app)/(1+[ATP]/Km^ATP)}+[E]total/2;
For all kinases, [ATP]=Km^ATP, [Btk]total=0.5 nM and [Lck]total=6 nM.
An IC50 of under 100 nM was found for `C=CC(=O)N1CC[C@@H](N(C)c2n[nH]c3nccc(Oc4ccc(Cl)cc4)c23)C1` [compound 2, 1-[(3R)-3-{[4-(4-chlorophenoxy)-1H-pyrazolo[3,4-b]pyridin-3-yl](methyl)amino}pyrrolidin-1-yl]prop-2-en-1-one] in this work.
An IC50 of 100 to 1000 nM was found for `CN(C)C/C=C/C(=O)N1CC[C@@H](Nc2n[nH]c3nccc(Oc4ccc(Oc5ccccc5)cc4C(N)=O)c23)C1` [compound 41] in this work.
An IC50 of 100 to 1000 nM was found for `CN(C/C=C/C(=O)N1CC[C@@H](N(C(=O)/C=C/CN(C)C2CC2)c2n[nH]c3ncnc(Oc4ccc(Oc5ccccc5)cc4)c23)C1)C1CC1` [compound 49] in this work.
An IC50 of 100 to 1000 nM was found for `CCC(=O)N1CCC[C@@H](N(C(=O)CC)c2n[nH]c3ncnc(Oc4ccc(Oc5ccccc5)cc4)c23)C1` [compound 52] in this work.
An IC50 of under 100 nM was found for `Nc1ncnc2[nH]nc(-c3ccc(Oc4ccccc4)cc3)c12` [compound 121, 3-(4-phenoxyphenyl)-1H-pyrazolo[3,4-b]pyrimidin-4-amine] in this work.
An IC50 of over 10000 nM was found for `CCNC(=O)Nc1ccc(Oc2ccnc3[nH]nc(N[C@@H]4CCCN(C(=O)/C=C/CN(C)C5CC5)C4)c23)cc1` [compound 136] in this work.
An IC50 of 100 to 1000 nM was found for `CN(C/C=C/C(=O)N1CCC[C@@H](Nc2n[nH]c3nccc(Oc4ccc(C(=O)Nc5cccc(C(F)(F)F)c5)cc4)c23)C1)C1CC1` [compound 138, 4-[(3-{[(3R)-1-[(2E)-4-[cyclopropyl(methyl)amino]but-2-enoyl]piperidin-3-yl]amino}-1H-pyrazolo[3,4-b]pyridin-4-yl)oxy]-N-[3-(trifluoromethyl)phenyl]benzamide] in this work.
An IC50 of over 10000 nM was found for `CC(C)NC(=O)Nc1ccc(Oc2ccnc3[nH]nc(N[C@@H]4CCCN(C(=O)/C=C/CN(C)C5CC5)C4)c23)cc1` [compound 147] in this work.
An IC50 of 1000 to 10000 nM was found for `Cc1cnc(-c2cccc(Oc3ccnc4[nH]nc(N[C@@H]5CCCN(C(=O)/C=C/CN(C)C6CC6)C5)c34)c2)s1` [compound 150] in this work.
An IC50 of over 10000 nM was found for `Cc1cnc(NC(=O)[C@H]2CC[C@H](Oc3ccnc4[nH]nc(N[C@@H]5CCCN(C(=O)/C=C/CN(C)C6CC6)C5)c34)CC2)s1` [compound 152] in this work.
An IC50 of 100 to 1000 nM was found for `C=CC(=O)N1CCC[C@@H](Nc2n[nH]c3nccc(Oc4ccc(-c5cc(C(F)(F)F)ccn5)cc4)c23)C1` [compound 155] in this work.
An IC50 of 1000 to 10000 nM was found for `Cc1c[nH]c(NC(=O)c2ccc(Oc3ccnc4[nH]nc(N[C@@H]5CCCN(C(=O)/C=C/CN(C)C6CC6)C5)c34)cc2)n1` [compound 157] in this work.
An IC50 of under 100 nM was found for `C=CC(=O)N1CCC[C@@H](Nc2n[nH]c3nccc(Oc4ccc(C(=O)N5CCCC(C(F)(F)F)C5)cc4)c23)C1` (stereo partly drawn) [compound 160] in this work.
An IC50 of 100 to 1000 nM was found for `CC#CC(=O)N1CCC[C@@H](Nc2n[nH]c3nccc(Oc4ccc(C(=O)N5CCCC(C(F)(F)F)C5)cc4)c23)C1` (stereo partly drawn) [compound 163] in this work.
An IC50 of under 100 nM was found for `C=CC(=O)N1CCC[C@@H](Nc2n[nH]c3nccc(Oc4ccc(C(=O)Nc5ncc(C#N)s5)cc4)c23)C1` [compound 166] in this work.
An IC50 of under 100 nM was found for `CC#CC(=O)N1CCC[C@@H](Nc2n[nH]c3nccc(Oc4ccc(C(=O)Nc5ncc(C#N)s5)cc4)c23)C1` [compound 168] in this work.
An IC50 of 100 to 1000 nM was found for `CC#CC(=O)N1CCC[C@@H](Nc2n[nH]c3nccc(Oc4ccc(-c5nc6ncccc6o5)cc4)c23)C1` [compound 170] in this work.
An IC50 of under 100 nM was found for `C=CC(=O)N1CC[C@@H](Nc2n[nH]c3nccc(Oc4ccc(C(=O)Nc5cc(C(F)(F)F)ccn5)cc4)c23)C1` [compound 171] in this work.
An IC50 of under 100 nM was found for `CC#CC(=O)N1CC[C@@H](Nc2n[nH]c3nccc(Oc4ccc(C(=O)Nc5cc(C(F)(F)F)ccn5)cc4)c23)C1` [compound 174] in this work.
An IC50 of 1000 to 10000 nM was found for `CC#CC(=O)N1CCC[C@@H](Nc2n[nH]c3nccc(Oc4ccc(C(=O)Nc5nnc(C)s5)cc4)c23)C1` [compound 180] in this work.
An IC50 of over 10000 nM was found for `CC#CC(=O)N1CCC[C@@H](Nc2n[nH]c3nccc(Oc4ccc(-c5ccc(C(F)(F)F)cn5)cc4)c23)C1` [compound 206, 1-[(3R)-3-[(4-{4-[5-(trifluoromethyl)pyridin-2-yl]phenoxy}-1H-pyrazolo[3,4-b]pyridin-3-yl)amino]piperidin-1-yl]but-2-yn-1-one] in this work.
An IC50 of under 100 nM was found for `C=CC(=O)N1CCC[C@@H](Nc2n[nH]c3nccc(Oc4ccc(C(=O)Nc5ncc(C(F)(F)F)s5)cc4)c23)C1` [compound 208, 4-[(3-{[(3R)-1-(prop-2-enoyl)piperidin-3-yl]amino}-1H-pyrazolo[3,4-b]pyridin-4-yl)oxy]-N-[5-(trifluoromethyl)-1,3-thiazol-2-yl]benzamide] in this work.
An IC50 of over 10000 nM was found for `Cc1nnc(NC(=O)c2ccc(Oc3ccnc4[nH]nc(N[C@@H]5CCCN(C(=O)/C=C/CN(C)C6CC6)C5)c34)cc2)s1` [compound 209, 4-[(3-{[(3R)-1-[(2E)-4-[cyclopropyl(methyl)amino]but-2-enoyl]piperidin-3-yl]amino}-1H-pyrazolo[3,4-b]pyridin-4-yl)oxy]-N-(5-methyl-1,3,4-thiadiazol-2-yl)benzamide] in this work.
An IC50 of 100 to 1000 nM was found for `CC#CC(=O)N1CCC[C@@H](Nc2n[nH]c3nccc(Oc4ccc(C(=O)N(C)c5ncc(C)s5)cc4)c23)C1` [compound 210, 4-[(3-{[(3R)-1-(but-2-ynoyl)piperidin-3-yl]amino}-1H-pyrazolo[3,4-b]pyridin-4-yl)oxy]-N-methyl-N-(5-methyl-1,3-thiazol-2-yl)benzamide] in this work.
An IC50 of under 100 nM was found for `C=CC(=O)N1CCC[C@@H](Nc2n[nH]c3nccc(Oc4ccc(C(=O)N(C)c5ncc(C)s5)cc4)c23)C1` [compound 211, N-methyl-N-(5-methyl-1,3-thiazol-2-yl)-4-[(3-{[(3R)-1-(prop-2-enoyl)piperidin-3-yl]amino}-1H-pyrazolo[3,4-b]pyridin-4-yl)oxy]benzamide] in this work.
An IC50 of under 100 nM was found for `CN(C/C=C/C(=O)N1CCC[C@@H](Nc2n[nH]c3nccc(Oc4ccc(C(=O)Nc5cc(C(F)(F)F)ccn5)cc4)c23)C1)C1CC1` [compound 212, 4-[(3-{[(3R)-1-[(2E)-4-[cyclopropyl(methyl)amino]but-2-enoyl]piperidin-3-yl]amino}-1H-pyrazolo[3,4-b]pyridin-4-yl)oxy]-N-[4-(trifluoromethyl)pyridin-2-yl]benzamide] in this work.
An IC50 of 100 to 1000 nM was found for `C=CC(=O)N1CCC[C@@H](Nc2n[nH]c3nccc(Oc4ccc(-c5nc6ncccc6o5)cc4)c23)C1` [compound 213, 1-[(3R)-3-{[4-(4-{[1,3]oxazolo[4,5-b]pyridin-2-yl}phenoxy)-1H-pyrazolo[3,4-b]pyridin-3-yl]amino}piperidin-1-yl]prop-2-en-1-one] in this work.
An IC50 of 100 to 1000 nM was found for `CN(C/C=C/C(=O)N1CCC[C@@H](Nc2n[nH]c3nccc(Oc4ccc(NC(=O)Nc5cc(C(F)(F)F)ccn5)cc4)c23)C1)C1CC1` [compound 214, 3-{4-[(3-{[(3R)-1-[(2E)-4-[cyclopropyl(methyl)amino]but-2-enoyl]piperidin-3-yl]amino}-1H-pyrazolo[3,4-b]pyridin-4-yl)oxy]phenyl}-1-[4-(trifluoromethyl)pyridin-2-yl]urea] in this work.
An IC50 of 100 to 1000 nM was found for `CN(C/C=C/C(=O)N1CC[C@@H](N2C(=O)CN(c3ccc(Oc4ccccc4)cc3)c3ccnc4[nH]nc2c34)C1)C1CC1` [compound 238] in this work.
An IC50 of under 100 nM was found for `CN(C/C=C/C(=O)N1CC[C@@H](N2CC(=O)N(c3ccc(Oc4ccccc4)cc3)c3ccnc4[nH]nc2c34)C1)C1CC1` [compound 239] in this work.
An IC50 of 100 to 1000 nM was found for `Cc1cc(NC(=O)c2cccc(Oc3ccnc4[nH]nc(N[C@@H]5CCNC5)c34)c2)ccc1C(C)C` [compound 249, (R)—N-(4-isopropyl-3-methylphenyl)-3-(3-(pyrrolidin-3-ylamino)-1H-pyrazolo[3,4-b]pyridin-4-yloxy)benzamide] in this work.
An IC50 of 100 to 1000 nM was found for `Cc1cc(NC(=O)c2cccc(Nc3ccnc4[nH]nc(N[C@@H]5CCCNC5)c34)c2)ccc1C(C)C` [compound 253, (R)—N-(4-isopropyl-3-methylphenyl)-3-(3-(piperidin-3-ylamino)-1H-pyrazolo[3,4-b]pyridin-4-ylamino)benzamide] in this work.
An IC50 of 100 to 1000 nM was found for `O=C(NC1CCCCC1)c1cccc(Oc2ccnc3[nH]nc(N[C@@H]4CCCNC4)c23)c1` [compound 254, (R)—N-cyclohexyl-3-(3-(piperidin-3-ylamino)-1H-pyrazolo[3,4-b]pyridin-4-yloxy)benzamide] in this work.
An IC50 of 100 to 1000 nM was found for `O=C(c1cccc(Oc2ccnc3[nH]nc(N[C@@H]4CCCNC4)c23)c1)N1CCCCC1` [compound 255, (R)-piperidin-1-yl(3-(3-(piperidin-3-ylamino)-1H-pyrazolo[3,4-b]pyridin-4-yloxy)phenyl)methanone] in this work.
An IC50 of 100 to 1000 nM was found for `O=C(c1cccc(Oc2ccnc3[nH]nc(N[C@@H]4CCCNC4)c23)c1)N1CCOCC1` [compound 256, (R)-morpholino(3-(3-(piperidin-3-ylamino)-1H-pyrazolo[3,4-b]pyridin-4-yloxy)phenyl)methanone] in this work.
An IC50 of 100 to 1000 nM was found for `CC(=O)N1CCN(C(=O)c2cccc(Oc3ccnc4[nH]nc(N[C@@H]5CCCNC5)c34)c2)CC1` [compound 257, (R)-1-(4-(3-(3-(piperidin-3-ylamino)-1H-pyrazolo[3,4-b]pyridin-4-yloxy)benzoyl)piperazin-1-yl)ethanone] in this work.
